In US20030215462A1, “Use of UGT inhibitors to increase bioavailability” (priority 2001, published 2003):

Assays:
[1] = system: UGT enzymes of pooled human jejunum microsomes; experiment: Inhibition of estradiol (E2) glucuronidation in pooled human jejunum microsomes; assay type: biochemical; conditions: jejunum HJ61; E2 50 μM; inhibitor 50 μM
Source text: (§1) Compounds were eluted using a binary solvent gradient system where solvent A was dilute phosphoric acid (pH 3) and solvent B was 80:20 acetonitrile-methanol. […] Detection was at 280 nm.

[2] = biological target: T1, UGT1A10 (Homo sapiens, UniProt Q9HAW8); experiment: Inhibition of raloxifene glucuronidation by recombinant UGT1A10 Bacculosomes; conditions: UGT1A10
T1 sequence (Q9HAW8 26-530): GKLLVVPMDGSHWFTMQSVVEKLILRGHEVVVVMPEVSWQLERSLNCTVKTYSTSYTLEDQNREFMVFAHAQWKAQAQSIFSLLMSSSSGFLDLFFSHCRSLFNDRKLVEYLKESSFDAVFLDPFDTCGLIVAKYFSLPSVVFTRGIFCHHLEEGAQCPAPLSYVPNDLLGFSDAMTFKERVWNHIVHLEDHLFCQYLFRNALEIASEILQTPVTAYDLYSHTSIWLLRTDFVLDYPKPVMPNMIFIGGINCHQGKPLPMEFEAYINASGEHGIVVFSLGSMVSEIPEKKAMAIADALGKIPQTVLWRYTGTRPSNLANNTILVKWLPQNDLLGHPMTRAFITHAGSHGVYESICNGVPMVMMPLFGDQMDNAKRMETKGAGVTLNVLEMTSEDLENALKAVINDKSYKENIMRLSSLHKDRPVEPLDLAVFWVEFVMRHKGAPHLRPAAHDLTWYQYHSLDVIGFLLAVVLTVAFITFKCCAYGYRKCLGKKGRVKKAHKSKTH
Procedure: (§2) Compounds were eluted using a binary solvent gradient system. Solvent A was water brought to pH 8 with NH4OH. Solvent B was methanol. Solvent flow rate was 1 ml/min and the column temperature was maintained at 50° C. Detection was at 280 nm. […] The system was then returned to the initial conditions and equilibrated for 3 min.

[3] = system: T2, UGT enzymes of human liver microsomes; experiment: Inhibition of estradiol (E2) glucuronidation in human liver microsomes; assay type: biochemical; conditions: liver 032101; E2 50 μM; inhibitor 50 μM
T2 construct: residual metabolism (% of control), E2-17-β-D-glucuronide; other: liver 032101; residual metabolism (% of control), E2-17-β-D-glucuronide
Source text: as §1

[4] = system: UGT enzymes of human liver microsomes; experiment: as above; assay type: biochemical; conditions: liver 062101; E2 50 μM; inhibitor 50 μM
Source text: as §1

[5] = system: T3, UGT enzymes of human liver microsomes; experiment: as above; assay type: biochemical; conditions: liver 032101; E2 50 μM; inhibitor 50 μM
T3 construct: residual metabolism (% of control), E2-3-β-D-glucuronide; other: liver 032101; residual metabolism (% of control), E2-3-β-D-glucuronide
Source text: as §1

[6] = system: UGT enzymes of pooled human jejunum microsomes; experiment: Inhibition of raloxifene glucuronidation (G1, G2) in pooled human jejunum microsomes; assay type: biochemical; conditions: jejunum HJ61; inhibitor 50 μM
Procedure: Compounds were eluted using a binary solvent gradient system. […] Solvent B was methanol. […] Detection was at 280 nm.
Standardized incubations utilized […] microsomal protein, 1 mM UDPGA and a 30 min incubation time.

[7] = biological target: T4, UGT1A1 (Homo sapiens, UniProt P22309); experiment: Inhibition of raloxifene glucuronidation by recombinant UGT1A1 Supersomes; conditions: for Inhibition of raloxifene glucuronidation, G1, UGT1A1 / Inhibition of raloxifene glucuronidation, G2, UGT1A1: raloxifene 50 μM, 250 μg/ml Supersomes, 1 mM UDPGA, 15 min; for % of control metabolism, raloxifene G1 / % of control metabolism, raloxifene G2: UGT1A1
T4 sequence (P22309 26-533): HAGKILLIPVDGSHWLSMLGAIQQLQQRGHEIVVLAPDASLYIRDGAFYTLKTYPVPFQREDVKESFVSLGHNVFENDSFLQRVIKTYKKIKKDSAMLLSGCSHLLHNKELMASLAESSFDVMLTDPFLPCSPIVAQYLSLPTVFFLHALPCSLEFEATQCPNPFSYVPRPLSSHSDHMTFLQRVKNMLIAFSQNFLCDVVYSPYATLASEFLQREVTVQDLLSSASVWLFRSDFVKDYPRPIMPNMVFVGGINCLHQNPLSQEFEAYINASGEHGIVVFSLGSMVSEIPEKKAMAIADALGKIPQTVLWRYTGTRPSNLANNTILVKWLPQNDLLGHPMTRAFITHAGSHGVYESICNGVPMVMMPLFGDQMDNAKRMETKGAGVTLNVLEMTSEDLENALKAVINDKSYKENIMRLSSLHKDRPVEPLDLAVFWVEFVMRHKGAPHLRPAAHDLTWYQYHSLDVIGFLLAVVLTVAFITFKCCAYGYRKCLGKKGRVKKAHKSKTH
Procedure: as §2

[8] = system: T5, UGT enzymes of human liver microsomes; experiment: Inhibition of 7-HFC glucuronidation in human liver microsomes; assay type: biochemical; conditions: for % of control metabolism (SD, n = 3), 7-HFC glucuronidation: 7-HFC 50 μM, human liver microsomes 100 μg/ml, 15 min
T5 construct: percentage of control metabolism, 7-HFC glucuronidation; percentage of control metabolism, 7-HFC glucuronidation

[9] = biological target: T6, UGT1A3 (Homo sapiens, UniProt P35503); experiment: Inhibition of raloxifene glucuronidation by recombinant UGT1A3 Supersomes; conditions: for Inhibition of raloxifene glucuronidation, G1, UGT1A3 / Inhibition of raloxifene glucuronidation, G2, UGT1A3: raloxifene 50 μM, 250 μg/ml Supersomes, 1 mM UDPGA, 15 min; for % of control metabolism, raloxifene G1 / % of control metabolism, raloxifene G2: UGT1A3
T6 sequence (P35503 29-534): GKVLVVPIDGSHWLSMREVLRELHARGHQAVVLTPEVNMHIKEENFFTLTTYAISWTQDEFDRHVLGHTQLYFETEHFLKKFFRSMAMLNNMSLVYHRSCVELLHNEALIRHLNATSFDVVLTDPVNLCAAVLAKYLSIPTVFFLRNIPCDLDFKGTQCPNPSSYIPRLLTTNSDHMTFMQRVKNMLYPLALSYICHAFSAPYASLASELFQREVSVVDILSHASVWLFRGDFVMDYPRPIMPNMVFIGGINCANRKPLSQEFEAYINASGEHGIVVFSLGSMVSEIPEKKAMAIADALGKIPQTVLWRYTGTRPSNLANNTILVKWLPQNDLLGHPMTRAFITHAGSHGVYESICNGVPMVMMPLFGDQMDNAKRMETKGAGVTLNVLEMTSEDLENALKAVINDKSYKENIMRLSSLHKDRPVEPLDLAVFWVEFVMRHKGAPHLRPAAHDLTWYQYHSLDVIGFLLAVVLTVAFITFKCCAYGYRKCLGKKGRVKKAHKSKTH
Procedure: as §2

[10] = inhibitor column headed only "μM" (between 25 μM and 5 μM)

O=C(O[C@@H]1Cc2c(O)cc(O)cc2O[C@@H]1c1cc(O)c(O)c(O)c1)c1cc(O)c(O)c(O)c1 [Epigallocatechin gallate]
residual metabolism (% of control), E2-3-β-D-glucuronide [1]: 32 (0) % | residual metabolism (% of control), E2-17-β-D-glucuronide [1]: 41 (4) % | % of control metabolism, raloxifene G1 ([2]; inhibitor 25 μM): 68 (1) % | % of control metabolism, raloxifene G2 ([2]; inhibitor 25 μM): 73 (1) % | % of control metabolism, raloxifene G1 ([2]; inhibitor 50 μM): 37 (2) % | % of control metabolism, raloxifene G2 ([2]; inhibitor 50 μM): 37 (1) % | residual metabolism (% of control), E2-17-β-D-glucuronide [3]: 82 (2) % | residual metabolism (% of control), E2-3-β-D-glucuronide [4]: 45 (2) % | residual metabolism (% of control), E2-17-β-D-glucuronide [4]: 70 (1) % | residual metabolism (% of control), E2-3-β-D-glucuronide [5]: 46 (1) % | % of control metabolism, raloxifene G1 [6]: 38 (2) % | % of control metabolism, raloxifene G2 [6]: 35 (4) % | Inhibition of raloxifene glucuronidation, G1, UGT1A1 ([7]; inhibitor 25 μM): 44 (1) | Inhibition of raloxifene glucuronidation, G1, UGT1A1 ([7]; inhibitor 50 μM): 21 (0) | Inhibition of raloxifene glucuronidation, G1, UGT1A1 [7, 10]: 70 (1) | Inhibition of raloxifene glucuronidation, G2, UGT1A1 ([7]; inhibitor 25 μM): 45 (1) | Inhibition of raloxifene glucuronidation, G2, UGT1A1 ([7]; inhibitor 50 μM): 25 (1) | Inhibition of raloxifene glucuronidation, G2, UGT1A1 [7, 10]: 74 (2) | % of control metabolism, raloxifene G1 ([7]; inhibitor 25 μM): 44 (1) % | % of control metabolism, raloxifene G2 ([7]; inhibitor 25 μM): 45 (1) % | % of control metabolism, raloxifene G1 ([7]; inhibitor 50 μM): 21 (0) % | % of control metabolism, raloxifene G2 ([7]; inhibitor 50 μM): 25 (1) % | percentage of control metabolism, 7-HFC glucuronidation ([8]; inhibitor 100 μM): 67 (1) % | % of control metabolism (SD, n = 3), 7-HFC glucuronidation ([8]; inhibitor 100 μM): 67 (1) % | percentage of control metabolism, 7-HFC glucuronidation ([8]; inhibitor 200 μM): 37 (2) % | % of control metabolism (SD, n = 3), 7-HFC glucuronidation ([8]; inhibitor 200 μM): 37 (2) % | percentage of control metabolism, 7-HFC glucuronidation ([8]; inhibitor 500 μM): 5 (1) % | % of control metabolism (SD, n = 3), 7-HFC glucuronidation ([8]; inhibitor 500 μM): 5 (1) % | Inhibition of raloxifene glucuronidation, G1, UGT1A3 ([9]; inhibitor 25 μM): 69 (2) | Inhibition of raloxifene glucuronidation, G1, UGT1A3 ([9]; inhibitor 50 μM): 26 (2) | Inhibition of raloxifene glucuronidation, G2, UGT1A3 ([9]; inhibitor 25 μM): 64 (3) | Inhibition of raloxifene glucuronidation, G2, UGT1A3 ([9]; inhibitor 50 μM): 25 (1) | % of control metabolism, raloxifene G1 ([9]; inhibitor 25 μM): 69 (2) % | % of control metabolism, raloxifene G2 ([9]; inhibitor 25 μM): 64 (3) % | % of control metabolism, raloxifene G1 ([9]; inhibitor 50 μM): 26 (2) % | % of control metabolism, raloxifene G2 ([9]; inhibitor 50 μM): 25 (1) %

O=C(O[C@@H]1Cc2c(O)cc(O)cc2O[C@@H]1c1ccc(O)c(O)c1)c1cc(O)c(O)c(O)c1 [Epicatechin gallate]
residual metabolism (% of control), E2-3-β-D-glucuronide [1]: 26 (1) % | residual metabolism (% of control), E2-17-β-D-glucuronide [1]: 61 (4) % | residual metabolism (% of control), E2-17-β-D-glucuronide [3]: 83 (0) % | residual metabolism (% of control), E2-3-β-D-glucuronide [4]: 34 (1) % | residual metabolism (% of control), E2-17-β-D-glucuronide [4]: 67 (1) % | residual metabolism (% of control), E2-3-β-D-glucuronide [5]: 27 (1) % | % of control metabolism, raloxifene G1 [6]: 34 (3) % | % of control metabolism, raloxifene G2 [6]: 40 (3) % | percentage of control metabolism, 7-HFC glucuronidation ([8]; inhibitor 100 μM): 67 (1) % | % of control metabolism (SD, n = 3), 7-HFC glucuronidation ([8]; inhibitor 100 μM): 67 (1) % | percentage of control metabolism, 7-HFC glucuronidation ([8]; inhibitor 200 μM): 55 (3) % | % of control metabolism (SD, n = 3), 7-HFC glucuronidation ([8]; inhibitor 200 μM): 55 (3) % | percentage of control metabolism, 7-HFC glucuronidation ([8]; inhibitor 500 μM): 10 (1) % | % of control metabolism (SD, n = 3), 7-HFC glucuronidation ([8]; inhibitor 500 μM): 10 (1) %
